Measurements taken from PubChem BioAssay (NCI).
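Cultured in 96-well plates, cells were exposed to test compound for 48 hours across five concentrations. Definition used: TGI = concentration required for complete inhibition of growth.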

Legend:
Test in all cases: NCI tumour cell line growth inhibition, 48 h
786-0 renal = test system: 786-0 renal
A498 renal = test system: A498 renal
A549 NSCLC = test system: A549 NSCLC
ACHN renal = test system: ACHN renal
BT-549 breast = test system: BT-549 breast
CAKI-1 renal = test system: CAKI-1 renal
CCRF-CEM leukemia = test system: CCRF-CEM leukemia
COLO 205 colon = test system: COLO 205 colon
DU-145 prostate = test system: DU-145 prostate
EKVX NSCLC = test system: EKVX NSCLC
HCC-2998 colon = test system: HCC-2998 colon
HCT-116 colon = test system: HCT-116 colon
HCT-15 colon = test system: HCT-15 colon
HL-60(TB) leukemia = test system: HL-60(TB) leukemia
HOP-62 NSCLC = test system: HOP-62 NSCLC
HOP-92 NSCLC = test system: HOP-92 NSCLC
HS 578T breast = test system: HS 578T breast
HT29 colon = test system: HT29 colon
IGROV1 ovarian = test system: IGROV1 ovarian
K-562 leukemia = test system: K-562 leukemia
KM12 colon = test system: KM12 colon
LOX IMVI melanoma = test system: LOX IMVI melanoma
M14 melanoma = test system: M14 melanoma
MALME-3M melanoma = test system: MALME-3M melanoma
MCF7 breast = test system: MCF7 breast
MDA-MB-231 breast = test system: MDA-MB-231 breast
MDA-MB-435 = test system: MDA-MB-435
MDA-N = test system: MDA-N
MOLT-4 leukemia = test system: MOLT-4 leukemia
NCI-H226 lung = test system: NCI-H226 lung
NCI-H23 lung = test system: NCI-H23 lung
NCI-H460 lung = test system: NCI-H460 lung
NCI-H522 lung = test system: NCI-H522 lung
NCI/ADR-RES ovarian = test system: NCI/ADR-RES ovarian
OVCAR-3 ovarian = test system: OVCAR-3 ovarian
OVCAR-4 ovarian = test system: OVCAR-4 ovarian
OVCAR-5 ovarian = test system: OVCAR-5 ovarian
OVCAR-8 ovarian = test system: OVCAR-8 ovarian
PC-3 prostate = test system: PC-3 prostate
RPMI-8226 leukemia = test system: RPMI-8226 leukemia
RXF 393 renal = test system: RXF 393 renal
SF-268 CNS = test system: SF-268 CNS
SF-295 CNS = test system: SF-295 CNS
SF-539 CNS = test system: SF-539 CNS
SK-MEL-2 melanoma = test system: SK-MEL-2 melanoma
SK-MEL-28 melanoma = test system: SK-MEL-28 melanoma
SK-MEL-5 melanoma = test system: SK-MEL-5 melanoma
SK-OV-3 ovarian = test system: SK-OV-3 ovarian
SN12C renal = test system: SN12C renal
SNB-19 CNS = test system: SNB-19 CNS
SNB-75 CNS = test system: SNB-75 CNS
SW-620 colon = test system: SW-620 colon
T-47D breast = test system: T-47D breast
TK-10 renal = test system: TK-10 renal
U251 CNS = test system: U251 CNS
UACC-257 melanoma = test system: UACC-257 melanoma
UACC-62 melanoma = test system: UACC-62 melanoma
UO-31 renal = test system: UO-31 renal

Measured: TGI

NC1=CN(CCCO)C2=N/C(=C\c3ccco3)C(=O)N12
> 100 µM: 786-0 renal | A498 renal | A549 NSCLC | ACHN renal | BT-549 breast | CAKI-1 renal | CCRF-CEM leukemia | COLO 205 colon | DU-145 prostate | EKVX NSCLC | HCC-2998 colon | HCT-116 colon | HCT-15 colon | HL-60(TB) leukemia | HOP-62 NSCLC | HOP-92 NSCLC | HS 578T breast | HT29 colon | IGROV1 ovarian | K-562 leukemia | KM12 colon | LOX IMVI melanoma | M14 melanoma | MALME-3M melanoma | MCF7 breast | MDA-MB-231 breast | MDA-MB-435 | MDA-N | MOLT-4 leukemia | NCI-H226 lung | NCI-H23 lung | NCI-H460 lung | NCI-H522 lung | NCI/ADR-RES ovarian | OVCAR-3 ovarian | OVCAR-4 ovarian | OVCAR-5 ovarian | OVCAR-8 ovarian | PC-3 prostate | RPMI-8226 leukemia | RXF 393 renal | SF-268 CNS | SF-295 CNS | SF-539 CNS | SK-MEL-2 melanoma | SK-MEL-28 melanoma | SK-MEL-5 melanoma | SK-OV-3 ovarian | SN12C renal | SNB-19 CNS | SNB-75 CNS | SW-620 colon | T-47D breast | TK-10 renal | U251 CNS | UACC-257 melanoma | UACC-62 melanoma | UO-31 renal
